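Five compound concentrations were applied to cells in 96-well plates for 48 hours; endpoints were derived by simple linear interpolation of the resulting dose-response curve. GI50 = concentration required for 50% inhibition of growth.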 Calls of active or inactive are those of the source. Cut-off read from the data, not from the text of the source: active = GI50 up to about 1.1 µM and inactive = higher.
Tests used:
Assay in all cases: growth of human tumour cells (NCI), 48 h
[1] = test system: HCT-116
[2] = test system: EKVX
[3] = test system: CCRF-CEM
[4] = test system: HL-60
[5] = test system: KM-20L2
[6] = test system: SK-MEL-2
[7] = test system: U-251
[8] = test system: A549
[9] = test system: LXFL 529
[10] = test system: SW-620
[11] = test system: 786-0
[12] = test system: HCC 2998
[13] = test system: HT-29
[14] = test system: SF-295
[15] = test system: RXF 393
[16] = test system: ACHN
[17] = test system: NCI-H23
[18] = test system: LOX IMVI
[19] = test system: M19-MEL
[20] = test system: SF-539
[21] = test system: UO-31
[22] = test system: UACC-62
[23] = test system: NCI-H226
[24] = test system: OVCAR-3
[25] = test system: OVCAR-8
[26] = test system: SK-MEL-28
[27] = test system: HOP-18
[28] = test system: NCI-H460
[29] = test system: SNB-78
[30] = test system: DMS-273
[31] = test system: SNB-19
[32] = test system: HOP-92
[33] = test system: MOLT-4
[34] = test system: HCT-15
[35] = test system: Malme-3M
[36] = test system: TK-10
[37] = test system: SF-268
[38] = test system: SNB-75
[39] = test system: UACC-257
[40] = test system: SR
[41] = test system: OVCAR-5
[42] = test system: COLO 205
[43] = test system: HOP-62
[44] = test system: RPMI-8226
[45] = test system: SN12C
[46] = test system: XF498
[47] = test system: SK-OV-3
[48] = test system: MDA-MB-231
[49] = test system: PC-3
[50] = test system: BT-549
[51] = test system: A498
[52] = test system: SK-MEL-5
[53] = test system: M14
[54] = test system: NCI-H522
[55] = test system: Hs-578T
[56] = test system: K562
[57] = test system: IGROV-1
[58] = test system: NCI/ADR-RES
[59] = test system: CAKI-1
[60] = test system: MDA-MB-435
[61] = test system: KM12
[62] = test system: MDA-N
[63] = test system: DLD-1
[64] = test system: OVCAR-4

Compound: FC(F)(F)c1ccc2nc(NCc3ccccc3)c(-c3ccccc3)nc2c1
- GI50 [1]: 29000 nM (inactive)
- GI50 [2]: 62200 nM (inactive)
- GI50 [3]: 37200 nM (inactive)
- GI50 [4]: 19300 nM (inactive)
- GI50 [5]: 29500 nM (inactive)
- GI50 [6]: 32900 nM (inactive)
- GI50 [7]: 21000 nM (inactive)
- GI50 [8]: 26900 nM (inactive)
- GI50 [9]: 43300 nM (inactive)
- GI50 [10]: 49400 nM (inactive)
- GI50 [11]: 20300 nM (inactive)
- GI50 [12]: 29900 nM (inactive)
- GI50 [13]: 36000 nM (inactive)
- GI50 [14]: 36000 nM (inactive)
- GI50 [15]: 20400 nM (inactive)
- GI50 [16]: 33200 nM (inactive)
- GI50 [17]: 53700 nM (inactive)
- GI50 [18]: 26300 nM (inactive)
- GI50 [19]: 32100 nM (inactive)
- GI50 [20]: 30200 nM (inactive)
- GI50 [21]: 25000 nM (inactive)
- GI50 [22]: 39000 nM (inactive)
- GI50 [23]: 37800 nM (inactive)
- GI50 [24]: 27600 nM (inactive)
- GI50 [25]: 86300 nM (inactive)
- GI50 [26]: 84900 nM (inactive)
- GI50 [27]: 35400 nM (inactive)
- GI50 [28]: 41000 nM (inactive)
- GI50 [29]: 38900 nM (inactive)
- GI50 [30]: 35200 nM (inactive)
- GI50 [31]: 46200 nM (inactive)
- GI50 [32]: 521 nM (active)
- GI50 [33]: 24700 nM (inactive)
- GI50 [34]: 25600 nM
- GI50 [35]: 25400 nM (inactive)
- GI50 [36]: 29600 nM (inactive)
- GI50 [37]: 48100 nM (inactive)
- GI50 [38]: 46200 nM (inactive)
- GI50 [39]: 28100 nM (inactive)
- GI50 [40]: 24900 nM (inactive)
- GI50 [41]: 90200 nM (inactive)
- GI50 [42]: 37200 nM (inactive)
- GI50 [43]: 52100 nM (inactive)
- GI50 [44]: 36400 nM (inactive)
- GI50 [45]: 36600 nM (inactive)
- GI50 [46]: 15100 nM (inactive)
- GI50 [47]: 38400 nM (inactive)

Compound: O=C1c2ccsc2C(=O)c2sc(CO)cc21
- GI50 [48]: 159 nM (active)
- GI50 [1]: 110 nM (active)
- GI50 [2]: 1650 nM (inactive)
- GI50 [49]: 126 nM (active)
- GI50 [3]: 207 nM (active)
- GI50 [4]: 656 nM (active)
- GI50 [5]: 182 nM (active)
- GI50 [6]: 92.9 nM (active)
- GI50 [50]: 18.2 nM (active)
- GI50 [7]: 156 nM (active)
- GI50 [8]: 50.7 nM (active)
- GI50 [51]: 331 nM (active)
- GI50 [9]: 161 nM (active)
- GI50 [10]: 56.4 nM (active)
- GI50 [11]: 385 nM (active)
- GI50 [52]: < 11.8 nM (active)
- GI50 [53]: < 12.3 nM (active)
- GI50 [12]: 3520 nM (inactive)
- GI50 [54]: 106 nM (active)
- GI50 [13]: 219 nM (active)
- GI50 [14]: 628 nM (active)
- GI50 [15]: 1090 nM (active)
- GI50 [16]: 68.1 nM (active)
- GI50 [17]: 32.2 nM (active)
- GI50 [18]: < 17.6 nM (active)
- GI50 [20]: 46.9 nM (active)
- GI50 [21]: 134 nM (active)
- GI50 [22]: 55.3 nM (active)
- GI50 [23]: 243 nM (active)
- GI50 [55]: 61.1 nM (active)
- GI50 [56]: 237 nM (active)
- GI50 [24]: 1590 nM (inactive)
- GI50 [25]: 113 nM (active)
- GI50 [26]: 30.7 nM (active)
- GI50 [57]: 627 nM (active)
- GI50 [58]: 84.5 nM (active)
- GI50 [27]: 34.9 nM (active)
- GI50 [28]: 1470 nM (inactive)
- GI50 [29]: 322 nM (active)
- GI50 [59]: 6470 nM (inactive)
- GI50 [30]: 32.7 nM (active)
- GI50 [31]: 92.9 nM (active)
- GI50 [32]: 333 nM (active)
- GI50 [33]: 524 nM (active)
- GI50 [34]: 42.1 nM
- GI50 [35]: 610 nM (active)
- GI50 [36]: 5930 nM (inactive)
- GI50 [37]: 1110 nM (active)
- GI50 [60]: < 13.2 nM (active)
- GI50 [38]: 56.4 nM (active)
- GI50 [39]: 45.6 nM (active)
- GI50 [40]: 98.4 nM (active)
- GI50 [41]: 1430 nM (inactive)
- GI50 [42]: 817 nM (active)
- GI50 [61]: 1790 nM (inactive)
- GI50 [62]: < 13.3 nM (active)
- GI50 [43]: 184 nM (active)
- GI50 [44]: 220 nM (active)
- GI50 [45]: 38.6 nM (active)
- GI50 [46]: 352 nM (active)
- GI50 [63]: 176 nM (active)
- GI50 [64]: 167 nM (active)
- GI50 [47]: 1110 nM (active)

From ChEMBL document CHEMBL1201862, “PubChem BioAssay data set” (2004)
